Experimental data: PMC6747323, “Discovery of Novel Angiotensin-Converting Enzyme Inhibitory Peptides from Todarodes pacificus and Their Inhibitory Mechanism: In Silico and In Vitro Studies” (International Journal of Molecular Sciences, 2019)
Where two headings read alike, the source gives them in different places. Ends that are not written are not given here. Peptide text beside a SMILES is read from it.

Key:
ACE [1] = conditions: cited from earlier work
[2] = test system: spontaneously hypertensive rats; parameters: method as in PMID 28102435; conditions: cited from earlier work
ACE [3] = test system: ACE; parameters: method as in AHTpin and BIOPEP-UWM databases; conditions: ref AHTpin and BIOPEP-UWM databases, cited from earlier work
ACE from rabbit lungs = molecular target: T1, ACE from rabbit lungs (Oryctolagus cuniculus, UniProt P12822); experiment: In vitro ACE inhibitory activity (HHL substrate, hippuric acid by UPLC); format: biochemical; conditions: synthesized new peptides, read-out: pIC50 (ACE inhibition) (converted)
T1 construct: The ACE from rabbit lungs; purchased Sigma Chemical Company (St. Louis, MO, USA); host or cells: rabbit lung tissue
T1 sequence (P12822 34-1310): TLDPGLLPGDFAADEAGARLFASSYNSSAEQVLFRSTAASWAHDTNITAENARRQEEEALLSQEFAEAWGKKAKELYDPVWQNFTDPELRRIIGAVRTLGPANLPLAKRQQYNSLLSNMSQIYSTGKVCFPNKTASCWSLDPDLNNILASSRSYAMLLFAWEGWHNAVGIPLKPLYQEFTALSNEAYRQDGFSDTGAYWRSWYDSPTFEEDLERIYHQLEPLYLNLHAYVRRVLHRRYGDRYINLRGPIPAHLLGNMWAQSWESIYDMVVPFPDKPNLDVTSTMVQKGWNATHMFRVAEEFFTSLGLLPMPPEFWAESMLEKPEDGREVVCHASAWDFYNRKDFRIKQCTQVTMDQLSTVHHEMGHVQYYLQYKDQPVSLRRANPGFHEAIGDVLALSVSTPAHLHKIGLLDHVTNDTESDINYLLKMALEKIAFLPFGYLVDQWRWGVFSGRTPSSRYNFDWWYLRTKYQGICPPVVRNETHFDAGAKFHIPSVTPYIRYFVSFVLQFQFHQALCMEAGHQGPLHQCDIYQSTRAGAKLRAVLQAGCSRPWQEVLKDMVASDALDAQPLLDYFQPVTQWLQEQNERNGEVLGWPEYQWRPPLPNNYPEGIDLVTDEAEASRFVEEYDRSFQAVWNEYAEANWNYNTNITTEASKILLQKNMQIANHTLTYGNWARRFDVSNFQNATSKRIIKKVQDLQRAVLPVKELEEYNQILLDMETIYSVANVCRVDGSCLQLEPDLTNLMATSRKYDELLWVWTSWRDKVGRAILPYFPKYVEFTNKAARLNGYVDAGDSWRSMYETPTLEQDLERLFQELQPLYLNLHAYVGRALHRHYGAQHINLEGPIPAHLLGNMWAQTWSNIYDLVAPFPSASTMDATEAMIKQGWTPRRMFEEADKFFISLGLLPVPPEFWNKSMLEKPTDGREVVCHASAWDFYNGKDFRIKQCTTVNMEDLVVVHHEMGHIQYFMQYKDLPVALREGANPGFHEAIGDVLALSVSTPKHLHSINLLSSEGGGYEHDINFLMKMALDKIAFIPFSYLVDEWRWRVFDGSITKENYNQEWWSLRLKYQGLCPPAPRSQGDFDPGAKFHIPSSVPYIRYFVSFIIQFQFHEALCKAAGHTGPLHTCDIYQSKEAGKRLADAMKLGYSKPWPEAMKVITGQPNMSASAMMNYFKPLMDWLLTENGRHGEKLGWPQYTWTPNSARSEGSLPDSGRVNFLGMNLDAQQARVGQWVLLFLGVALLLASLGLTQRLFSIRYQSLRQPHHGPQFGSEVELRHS
Text: The tested peptides from t hmyosin heavy chain in Todarodes pacificus were provided by Anhui Guoping Pharmaceutical Co., Ltd. (Hefei, China). The ACE from rabbit lungs, hippuryl-histidyl-leucine (HHL), and hippuric acid (HA) were purchased from the Sigma Chemical Company (St. Louis, MO, USA). The solvents for high performance liquid chromatography (HPLC) including acetonitrile and trifluoroacetic acid (TFA) were provided by Merck (Darmstadt, Germany). All the other reagents and chemicals used were of analytical grade.
The ACE inhibitory activity analysis was performed based on Yu et al. with some modifications. HHL was dissolved in 100 mM sodium borate buffer (pH 8.3) to achieve a final concentration of 5.8 mM. A reaction mixture containing 50 μL of ACE solution (100 mU/mL) and 100 μL of sample were pre-incubated at 37 °C for 5 min. Subsequently, 150 μL HHL was added and the mixture was incubated at 37 °C for 60 min. The reaction was terminated by the addition of 200 μL of 0.1 M HCl. […] The amount of HA was determined via an ultra-performance liquid chromatography on a Waters Acquity UPLC BEH C18 column (1.7 μm, 2.1 mm × 100 mm). […] The degree of ACE inhibition was calculated as follows:(1) ACE inhibition activity (%)=A−B/A×100% where A was the HA concentration of a reaction containing ACE without peptide, B was the HA concentration of a reaction in the presence of ACE and peptide. […]

[4] = Table S1, plant proteases without PREP
[5] = Table S2, plant proteases with PREP

Row | Compound | pIC50 (ACE [3]; [4]) | also measured
1 | KVLPVPQ | – | ACE inhibitory activity in vitro (ACE [1]; β-casein fragment): relatively weak; Antihypertensive effect [2]: effective
2 | Val-Phe [VF] | 5.04 | –
3 | Ala-Phe [AF] | 3.78 | –
4 | Ala-Pro [AP] | – | pIC50 (ACE [3]; [5]): 4.54
5 | Met-Asn-Pro-Pro-Lys (MNPPK; printed: Met-Asn-Pro-Pro-Lys) | – | pIC50 (ACE inhibition) (ACE [1]; from porcine skeletal muscle hydrolysate): 3.02
6 | Lys-Pro [KP] | – | pIC50 (ACE [3]; [5]): 4.66
7 | Ala-Tyr [AY] | 4.85 | –
8 | Met-Gly [MG] | 2.32 | –
9 | Gln-Lys [QK] | 3.05 | –
10 | NCCCC[C@H](NC(=O)[C@@H]1CCCN1C(=O)[C@@H]1CCCN1C(=O)[C@@H](N)CC(N)=O)C(=O)O [NPPK, Asn-Pro-Pro-Lys] (H-NPPK-OH) | – | IC50 (ACE from rabbit lungs): 38.9 µM
11 | Thr-Pro [TP] | – | pIC50 (ACE [3]; [5]): 3.54
12 | Met-Phe [MF] | 6.04 | –
13 | Ala-Gly [AG] | 2.60 | –
14 | Ile-Tyr [IY] | 5.68 | –
15 | Ser-Gly [SG] | 2.07 | –
16 | Ile-Leu | 4.26 | –
17 | Asp-Gly [DG] | 5.67 | –
18 | Trp-Leu [WL] | 4.52 | –
19 | Ala-Ser-Leu [ASL] | 3.99 | –
20 | Ala-Ile-Pro [AIP] | – | pIC50 (ACE [3]; [5]): 3.46

Row | Compound | pIC50 (ACE [3]; [4]) | also measured
21 | Met-Tyr [MY] | 3.71 | –
22 | Val-Ala-Phe [VAF] | 4.45 | –
23 | Ala-Val-Pro [AVP] | – | pIC50 (ACE [3]; [5]): 3.47
24 | Pro-Pro-Lys [PPK] | 3.00 | –
25 | Ile-Phe [IF] | 4.18 | –
26 | Ile-Arg [IR] | 3.16 | –
27 | Asp-Tyr [DY] | 4.00 | –
28 | Ile-Glu-Lys-Pro (IEKP; printed: Ile-Glu-Lys-Pro) | – | IC50 (ACE inhibition) (ACE [1]; peptide derived from catfish myofibrillar protein): 2.1 µg/mL
29 | Ala-His [AH] | 3.28 | –
30 | Ser-Thr [ST] | 5.39 | –
31 | Glu-Tyr [EY] | 5.57 | –
32 | Thr-Phe [TF] | 4.74 | –
33 | Asn-Tyr [NY] | 4.49 | –
34 | Glu-Gly [EG] | 2.00 | –
35 | Pro-Leu [PL] | 3.47 | –
36 | Asn-Gly [NG] | 1.92 | –
37 | Val-Pro [VP] | – | pIC50 (ACE [3]; [5]): 3.38
38 | Glu-Trp [EW] | 3.86 | –
39 | Ser-Phe [SF] | 3.89 | –
